In patent US20200022936A1, “COMBINATIONS OF DICLOFENAC, H2 RECEPTOR ANTAGONISTS AND ALKALI METAL BICARBONATES FOR THE TREATMENT OF PAIN AND INFLAMMATION” (priority 2017, published 2020):

Assay: in vivo
Design: species or system Wistar rats
Conditions: male, Wistar, rat, po
From the text: The primary objective of the test was to compare the pharmacokinetics of diclofenac potassium when used as a single active compound with diclofenac potassium in combination with famotidine and/or potassium bicarbonate. In this experimental study, the aim was to observe how the addition of potassium bicarbonate to diclofenac and famotidine would change the pharmacokinetic properties of diclofenac potassium when diclofenac potassium is given alone or in combination with famotidine and/or potassium bicarbonate.
Male Wistar rats (240-260 g) were used in the study. The rats were maintained in an air-conditioned animals quarter at a temperature of 22±2° C. and a relative humidity of 50±10%. Food and water were allowed ad libitum. The animals were acclimatized to the facilities for five days, and then fasted with free access to water for 12 h prior to the experiment. All the animals were housed under similar conditions.
Bioavailability and pharmacokinetics of diclofenac were studied in all the normal state of rats following an oral administration of 1 mg/kg diclofenac potassium, 0.4 mg/kg famotidine and 0.72 mg/kg or 0.36 mg/kg potassium bicarbonate in different occasions. Each rat was further subjected to similar studies after administration of diclofenac potassium and/or diclofenac in combination with famotidine. A total of 30 rats were used in the study divided into 5 groups, each group was administered; diclofenac alone, or 4 different combinations of diclofenac as outlined below.
Six male and/or female rats per group were lavaged with 1 mg/kg Diclofenac potassium and combinations at a dosing volume of 2 ml/kg. Blood (0.2 ml) was taken from the tail vein prior to administration of test substances (0 h) and after 0.083, 0.167, 0.25, 0.5, 1, 2, 4, 8 and 12 h.
Blood samples were collected in tubes containing %5 Na2-EDTA and kept on ice until 50 ul dichloromethane was added and they were centrifuged at 7000×g for 5 min at 4° C. and supernatants were collected for LC/MSMS analysis.

SMILES: O=C(O)Cc1ccccc1Nc1c(Cl)cccc1Cl [Diclofenac-K, 2[(2,6-dichlorophenyl)amino]benzeneacetic acid]
- Cmax: 1260 ng/mL
- Tmax of diclofenac: 15 min
- AUC(0-t) (1 mg/kg): 7510 ng·h/mL
- Cmax (1 mg/kg): 1262 ± 0.048 ng/mL
- Tmax (1 mg/kg): 15 min
- Blood Concentrations of Diclofenac Potassium (1 mg/kg, 0.083 h): 1.096 ± 0.054
- Blood Concentrations of Diclofenac Potassium (1 mg/kg, 0.25 h): 1.262 ± 0.048
- Blood Concentrations of Diclofenac Potassium (1 mg/kg, 0.5 h): 1.078 ± 0.137
- Blood Concentrations of Diclofenac Potassium (1 mg/kg, 1 h): 0.943 ± 0.015
- Blood Concentrations of Diclofenac Potassium (1 mg/kg, 2 h): 0.600 ± 0.159
- Blood Concentrations of Diclofenac Potassium (1 mg/kg, 4 h): 0.600 ± 0.015
- Blood Concentrations of Diclofenac Potassium (1 mg/kg, 8 h): 0.578 ± 0.033
- Blood Concentrations of Diclofenac Potassium (1 mg/kg, 12 h): 0.486 ± 0.092
